The values that follow come from BindingDB's records for PubMed 1857334 (National Institute of Mental Health, 1991).

This test concerns the target T1, Adenosine receptor A1 (Rattus norvegicus, UniProt P25099).
T1 sequence (P25099 whole entry): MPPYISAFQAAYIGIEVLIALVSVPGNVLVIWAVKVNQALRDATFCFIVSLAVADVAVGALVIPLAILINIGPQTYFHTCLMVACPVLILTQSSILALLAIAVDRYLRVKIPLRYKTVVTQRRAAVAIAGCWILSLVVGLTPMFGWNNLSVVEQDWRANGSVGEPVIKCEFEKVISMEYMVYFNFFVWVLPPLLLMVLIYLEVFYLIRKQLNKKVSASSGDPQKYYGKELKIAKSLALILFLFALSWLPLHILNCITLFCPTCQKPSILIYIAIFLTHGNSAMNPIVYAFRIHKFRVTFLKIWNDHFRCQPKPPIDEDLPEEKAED

The Ki is the dissociation constant of the complex between target and ligand, obtained from inhibition or displacement. In turn, `CCCn1c(=O)c2[nH]c(-c3ccc(OCC(=O)NCCN)cc3)nc2n(CCC)c1=O` [N-(2-Amino-ethyl)-2-[4-(2,6-dioxo-1,3-dipropyl-2,3,6,9-tetrahydro-1H-purin-8-yl)-phenoxy]-acetamide] had an inhibition constant Ki of 2 nM. That is a single-digit nanomolar value.
